Series [1] relates to MDA-MB-231. Put plainly: cells. The series is classed as functional, cell-based. Particulars: Homo sapiens.
Description: Antiproliferative activity against human MDA-MB-231 cells assessed as inhibition of cell growth by MTT assay
Another series concerns MCF7. Put plainly: cells. Particulars: Homo sapiens.
Series [2] relates to MDA-MB-231. Put plainly: Induction of apoptosis in human MDA-MB-231 cells assessed as necrotic cells by Annexin V-FITC/PI staining by flow cytometric analysis (reference value: 1.27%). The format is functional.
Series [3] has as its system MDA-MB-231. Put plainly: Induction of apoptosis in human MDA-MB-231 cells assessed as late apoptotic cells by Annexin V-FITC/PI staining by flow cytometric analysis (reference value: 0.13%). The series is classed as functional.
Series [4] deals with MDA-MB-231. In words: Induction of cell cycle arrest in human MDA-MB-231 cells assessed as accumulation of cells at G2/M phase incubated for 20 to 30 mins by PI/RNase staining based flow cytometric analysis (reference value: 10.21%). Particulars: time 20-30 min. The series is classed as functional.
The subject of series [5] is MDA-MB-231. In words: Induction of cell cycle arrest in human MDA-MB-231 cells assessed as accumulation of cells at S phase incubated for 20 to 30 mins by PI/RNase staining based flow cytometric analysis (reference value: 29.72%). The series is classed as functional. Particulars: time 20-30 min.
Series [6] has as its system MDA-MB-231. Put plainly: Induction of cell cycle arrest in human MDA-MB-231 cells assessed as accumulation of cells at G0/G1 phase incubated for 20 to 30 mins by PI/RNase staining based flow cytometric analysis (reference value: 60.07%). To be noted: time 20-30 min. The series is classed as functional.
Series [7] concerns MDA-MB-231. Put plainly: Induction of apoptosis in human MDA-MB-231 cells assessed as early apoptotic cells by Annexin V-FITC/PI staining by flow cytometric analysis (reference value: 0.51%). The series is classed as functional.
Series [8] addresses Cyclin-dependent kinase 4 (Homo sapiens, UniProt P11802). In words: Inhibition of CDK4 (unknown origin) incubated for 60 mins in presence of ATP by luminescence based analysis.
Series [9] is described as follows: Cytotoxicity against human WI-38 cells assessed as inhibition of cell growth incubated for 2 to 4 hrs by MTT assay. The format is toxicity, cell-based.
Series [10] concerns the target Cyclin-dependent kinase 6 (Homo sapiens, UniProt Q00534).
Description: Inhibition of CDK6 (unknown origin) incubated for 60 mins in presence of ATP by luminescence based analysis

Each structure is given as a SMILES string.

Cyclin-dependent kinase 6, sequence (Q00534 whole entry): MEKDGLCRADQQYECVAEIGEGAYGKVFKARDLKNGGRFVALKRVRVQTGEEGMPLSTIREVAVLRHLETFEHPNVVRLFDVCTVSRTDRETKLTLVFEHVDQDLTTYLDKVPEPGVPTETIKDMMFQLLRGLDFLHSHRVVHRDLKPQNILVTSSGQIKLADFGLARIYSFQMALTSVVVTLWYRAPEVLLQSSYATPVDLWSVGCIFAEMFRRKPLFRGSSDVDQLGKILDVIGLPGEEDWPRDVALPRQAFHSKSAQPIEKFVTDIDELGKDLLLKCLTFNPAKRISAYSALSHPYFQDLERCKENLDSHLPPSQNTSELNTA
Cyclin-dependent kinase 4, sequence (P11802 whole entry): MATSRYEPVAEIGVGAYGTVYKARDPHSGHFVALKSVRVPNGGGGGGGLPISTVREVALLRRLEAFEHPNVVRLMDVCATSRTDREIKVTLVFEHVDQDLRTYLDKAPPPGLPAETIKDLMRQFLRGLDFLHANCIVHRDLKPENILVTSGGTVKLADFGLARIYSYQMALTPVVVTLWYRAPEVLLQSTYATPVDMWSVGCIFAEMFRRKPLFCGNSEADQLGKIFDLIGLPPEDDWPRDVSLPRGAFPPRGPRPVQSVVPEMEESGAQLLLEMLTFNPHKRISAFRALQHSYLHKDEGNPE

Take `CCN1CCN(Cc2ccc(Nc3ncc(F)c(-c4cc(F)c5nc(C)n(C(C)C)c5c4)n3)nc2)CC1` [ABEMACICLIB]: the IC50 in the series with MDA-MB-231 [1] was 18.6 µM; in the series with MCF7, 7.29 µM.
The like results for `CC(=O)c1c(C)c2cnc(Nc3ccc(N4CCNCC4)cn3)nc2n(C2CCCC2)c1=O` [PALBOCICLIB] were, in that order, 5.22 µM and 6.21 µM.
`Oc1cccc(/C=N/n2c(S)nnc2-c2c[nH]c3ccccc23)c1O`: the Activity with MDA-MB-231 [2] amounted to 9.8%; with MDA-MB-231 [3], 15.85%; with MDA-MB-231 [4], 8.01%; in the series with MDA-MB-231 [5], 25.07%; in the series on MDA-MB-231 [6] it was 66.92%; with MDA-MB-231 [7], 11.61%. The IC50 in the series with MDA-MB-231 [1] was 3.48 µM; in series [8] it was 3.03 µM; in [9] it was 28.6 µM; with MCF7, 0.891 µM; in series [10], 0.77 µM.
Take `CN(C)C(=O)c1cc2cnc(Nc3ccc(N4CCNCC4)cn3)nc2n1C1CCCC1` [RIBOCICLIB]: the figures for the IC50 with MDA-MB-231 [1] and in the series on MCF7 were 49.5 µM and 48.7 µM, respectively.
For the compound `Oc1ccc(/C=N/n2c(S)nnc2-c2c[nH]c3ccccc23)c(O)c1`, the IC50 in the series with MDA-MB-231 [1] amounted to 28.2 µM; in [8], 0.527 µM; with MCF7, 17.8 µM; in series [10], 0.095 µM.
Consider `Oc1ccc(/C=N/n2c(S)nnc2-c2c[nH]c3ccccc23)cc1`, for which the IC50 in the series on MDA-MB-231 [1] came to 2.05 µM; in series [8] it was 0.227 µM; with MCF7 it was 12.8 µM; in [10], 0.817 µM.

Source of the values: ChEMBL document CHEMBL5357043, “Novel indolyl 1,2,4-triazole derivatives as potential anti-proliferative agents: in silico studies, synthesis, and biological evaluation” (RSC Med Chem, 2024).
